Assay results reported in ChEMBL document CHEMBL3045205, “Synthesis and Fungicidal Activities of [2-(2, 5-Dimethylphenoxymethyl)--methoxyiminobenzyl]-isoxazole Derivatives” (J Pestic Sci, 1999).

Legend:
Type in all cases: functional
[1] = test system: Blumeria graminis f. sp. tritici; test: Fungicidal activity against Blumeria graminis f. sp. tritici inoculated on wheat seedlings pre-treated with compound 24 hr before fungal inoculation assessed as inhibition of wheat powdery mildew disease at 500 ppm measured after 10 days under greenhouse conditions relative to untreated control
Podosphaera fuliginea [2] = test: Fungicidal activity against Podosphaera fuliginea inoculated on cucumber plants pre-treated with compound 24 hr before fungal inoculation assessed as inhibition of cucumber powdery mildew disease at 500 ppm measured after 10 days under greenhouse conditions relative to untreated control
[3] = test system: Blumeria graminis f. sp. tritici; test: Fungicidal activity against Blumeria graminis f. sp. tritici inoculated on wheat seedlings treated with compound 24 hr after fungal inoculation assessed as inhibition of wheat powdery mildew disease at 7.8 ppm measured after 10 days under greenhouse conditions relative to untreated control
Podosphaera fuliginea [4] = test: Fungicidal activity against Podosphaera fuliginea inoculated on cucumber plants pre-treated with compound 24 hr before fungal inoculation assessed as inhibition of cucumber powdery mildew disease at 31.3 ppm measured after 10 days under greenhouse conditions relative to untreated control
Podosphaera fuliginea [5] = test: Fungicidal activity against Podosphaera fuliginea inoculated on cucumber plants pre-treated with compound 24 hr before fungal inoculation assessed as inhibition of cucumber powdery mildew disease at 7.8 ppm measured after 10 days under greenhouse conditions relative to untreated control
Botrytis cinerea [6] = test: Fungicidal activity against Botryotinia fuckeliana inoculated on cucumber leaves pre-treated with compound 24 hr before fungal inoculation assessed as inhibition of cucumber gray mold disease at 7.8 ppm measured after 3 days under greenhouse conditions relative to untreated control
Puccinia coronata [7] = test: Fungicidal activity against Puccinia coronata inoculated in oat leaves pre-treated with compound 24 hr before fungal inoculation assessed as inhibition of oat crown rust disease at 7.8 ppm measured after 9 days under greenhouse conditions relative to untreated control
Botrytis cinerea [8] = test: Fungicidal activity against Botryotinia fuckeliana inoculated on cucumber leaves treated with compound 24 hr after fungal inoculation assessed as inhibition of cucumber gray mold disease at 7.8 ppm measured after 3 days under greenhouse conditions relative to untreated control
Pyricularia oryzae = test: Inhibition of oxygen consumption in Magnaporthe oryzae submitochondrial particles using NADH substrate
[9] = test system: Blumeria graminis f. sp. tritici; test: Fungicidal activity against Blumeria graminis f. sp. tritici inoculated on wheat seedlings pre-treated with compound 24 hr before fungal inoculation assessed as inhibition of wheat powdery mildew disease at 7.8 ppm measured after 10 days under greenhouse conditions relative to untreated control
Botrytis cinerea [10] = test: Fungicidal activity against Botryotinia fuckeliana inoculated on cucumber leaves pre-treated with compound 24 hr before fungal inoculation assessed as inhibition of cucumber gray mold disease at 31.3 ppm measured after 3 days under greenhouse conditions relative to untreated control
Podosphaera fuliginea [11] = test: Fungicidal activity against Podosphaera fuliginea inoculated on cucumber plants treated with compound 24 hr after fungal inoculation assessed as inhibition of cucumber powdery mildew disease at 31.3 ppm measured after 10 days under greenhouse conditions relative to untreated control
[12] = test system: Blumeria graminis f. sp. tritici; test: Fungicidal activity against Blumeria graminis f. sp. tritici inoculated on wheat seedlings pre-treated with compound 24 hr before fungal inoculation assessed as inhibition of wheat powdery mildew disease at 31.3 ppm measured after 10 days under greenhouse conditions relative to untreated control
[13] = test system: Blumeria graminis f. sp. tritici; test: Fungicidal activity against Blumeria graminis f. sp. tritici inoculated on wheat seedlings treated with compound 24 hr after fungal inoculation assessed as inhibition of wheat powdery mildew disease at 31.3 ppm measured after 10 days under greenhouse conditions relative to untreated control
Botrytis cinerea [14] = test: Fungicidal activity against Botryotinia fuckeliana inoculated on cucumber leaves treated with compound 24 hr after fungal inoculation assessed as inhibition of cucumber gray mold disease at 31.3 ppm measured after 3 days under greenhouse conditions relative to untreated control
Puccinia coronata [15] = test: Fungicidal activity against Puccinia coronata inoculated in oat leaves treated with compound 24 hr after fungal inoculation assessed as inhibition of oat crown rust disease at 31.3 ppm measured after 9 days under greenhouse conditions relative to untreated control
Puccinia coronata [16] = test: Fungicidal activity against Puccinia coronata inoculated in oat leaves treated with compound 24 hr after fungal inoculation assessed as inhibition of oat crown rust disease at 7.8 ppm measured after 9 days under greenhouse conditions relative to untreated control
Podosphaera fuliginea [17] = test: Fungicidal activity against Podosphaera fuliginea inoculated on cucumber plants treated with compound 24 hr after fungal inoculation assessed as inhibition of cucumber powdery mildew disease at 7.8 ppm measured after 10 days under greenhouse conditions relative to untreated control
Puccinia coronata [18] = test: Fungicidal activity against Puccinia coronata inoculated in oat leaves pre-treated with compound 24 hr before fungal inoculation assessed as inhibition of oat crown rust disease at 31.3 ppm measured after 9 days under greenhouse conditions relative to untreated control
[19] = test system: Blumeria graminis f. sp. tritici; test: Fungicidal activity against Blumeria graminis f. sp. tritici inoculated on wheat seedlings pre-treated with compound 24 hr before fungal inoculation assessed as inhibition of wheat powdery mildew disease at 125 ppm measured after 10 days under greenhouse conditions relative to untreated control

Row | SMILES | inhibition at 500 ppm [1] | inhibition at 7.8 ppm [3] | inhibition at 31.3 ppm (Podosphaera fuliginea [4]) | inhibition at 7.8 ppm (Podosphaera fuliginea [5]) | inhibition at 7.8 ppm (Botrytis cinerea [6]) | inhibition at 7.8 ppm (Puccinia coronata [7]) | inhibition at 7.8 ppm (Botrytis cinerea [8]) | IC50 (Pyricularia oryzae) | inhibition at 7.8 ppm [9] | inhibition at 31.3 ppm (Botrytis cinerea [10]) | inhibition at 31.3 ppm (Podosphaera fuliginea [11]) | inhibition at 31.3 ppm [12] | inhibition at 31.3 ppm [13] | inhibition at 31.3 ppm (Botrytis cinerea [14]) | inhibition at 31.3 ppm (Puccinia coronata [15]) | inhibition at 7.8 ppm (Puccinia coronata [16]) | inhibition at 7.8 ppm (Podosphaera fuliginea [17]) | inhibition at 31.3 ppm (Puccinia coronata [18]) | other results
1 | CO/N=C(/C1=NOC(C)(C)C1)c1ccccc1COc1cc(C)ccc1C | < 90% | – | – | – | – | – | – | – | – | – | – | – | – | – | – | – | – | – | inhibition at 500 ppm (Podosphaera fuliginea [2]): < 90%
2 | CCc1cc(/C(=N/OC)c2ccccc2COc2cc(C)ccc2C)on1 | < 90% | – | – | – | – | – | – | – | – | – | – | – | – | – | – | – | – | – | inhibition at 500 ppm (Podosphaera fuliginea [2]): 90%
3 | CO/N=C(\c1cc(C)no1)c1ccccc1COc1cc(C)ccc1C | – | 70% | 100% | 100% | 10% | 90% | 0% | 46 nM | 97% | 30% | 100% | 97% | 97% | 20% | 100% | 97% | 100% | 97% | –
4 | CO/N=C(/c1ccon1)c1ccccc1COc1cc(C)ccc1C | – | 90% | 100% | 100% | 20% | 90% | 30% | 103 nM | 97% | 40% | 100% | 97% | 97% | 30% | 70% | 30% | 100% | 97% | –
5 | CO/N=C(\c1ccccc1COc1cc(C)ccc1C)C1CC(C)=NO1 (stereo not given) | < 90% | – | 90% | – | – | – | – | – | – | – | – | – | – | – | – | – | – | – | –
6 | CO/N=C(/c1cc(C)on1)c1ccccc1COc1cc(C)ccc1C | < 90% | – | 90% | – | – | – | – | – | – | – | – | – | – | – | – | – | – | – | –
7 | CON=C(C1=NOCC1)c1ccccc1COc1cc(C)ccc1C | – | – | – | 90% | – | – | – | – | – | – | – | – | – | – | – | – | – | – | inhibition at 125 ppm [19]: 90%
8 | CO/N=C(/c1cc(C)no1)c1ccccc1COc1cc(C)ccc1C | – | – | – | 90% | – | – | – | – | – | – | – | 90% | – | – | – | – | – | – | –
9 | CNC(=O)/C(=N/OC)c1ccccc1Oc1cc(C)ccc1C | – | 97% | 100% | 100% | 40% | 100% | 40% | 18 nM | 100% | 50% | 100% | 100% | 97% | 50% | 100% | 100% | 100% | 100% | –
10 | CON=C(c1ccon1)c1ccccc1COc1cc(C)ccc1C | – | – | – | 90% | – | – | – | – | 90% | – | – | – | – | – | – | – | – | – | –
